Article PMC4366261, “Characterization of the Intestinal Absorption of Seven Flavonoids from the Flowers of Trollius chinensis Using the Caco-2 Cell Monolayer Model” (PLoS ONE, 2015)
Values after ≈ are worked out from the molar mass of the structure shown.

Key:
Caco-2 cells = assay: MTT assay, survival rate of Caco-2 cells; type: cell-based, human; conditions: 4 h
Text: The human colon adenocarcinoma cell line Caco-2 (No. 3111C0001CCC000100, passage 32) was obtained from the Cell Resource Center, Peking Union Medical College (the headquarters of National Infrastructure of Cell Line Resource, NSTI) on May 3rd, 2013. The cell line was checked free of mycoplasma contamination by PCR and culture, its species origin was confirmed with PCR, and its identity was authenticated with STR profiling (FBI, CODIS). All results of the above tests can be viewed on the website (http://cellresource.cn). The cells were cultured in 25 cm^2 flasks in DMEM medium supplemented with 10% (v/v) FBS, 1% (v/v) NEAA, and 1% (v/v) penicillin-streptomycin, in an atmosphere of 5% CO2 at 37°C and constant moisture. The culture medium was replaced every 2 to 3 days, and the cells were split 1:2 or 1:3 as 80% confluence was obtained.
Caco-2 cells at logarithmic growth phase were seeded into 96-well plates and incubated at 37°C in an atmosphere of 5% CO2 and constant moisture in the incubator. After the cells reached confluence, they were cultured in quadruplicate with 100 μL of HBSS solution (negative control) and compound-containing HBSS solution (seven flavonoids or paclitaxel (positive control) at the concentrations of 25, 50, and 100 μmol/L, respectively) for 4 h. Then, HBSS solution was replaced by 100 μL of MTT solution (0.5 mg/mL), and the supernatant was discarded after 4 h of incubation at 37°C. The cells were shaken with 150 μL of DMSO for 10 min, and the absorbance was read on the microplate reader at 570 nm. The survival rate %=A¯/A0¯×100 , wherein A¯ was the average absorbance value of treatment or positive control group, and A0¯ was the average absorbance value of negative control group.

[1] = Transport experiment across Caco-2 cell monolayer (Papp); type: in vitro ADME, human; conditions: human
Description: (§1) For cells differentiation to form a confluent monolayer, Caco-2 cells were seeded into the inserts of the 12-well Transwell plates at the density of 1.0×10^5 cells/cm^2. The culture medium was replaced on every other day in the first week, and then at daily intervals for the apical (AP) side and 2 days intervals for the basal (BL) side until the transport experiment was performed 21 days after seeding. The AP and BL sides contained 0.5 and 1.5 mL of culture medium, respectively. […] The cell inserts were considered as qualified only if the resistance reached above 600 Ω cm^2.
(§2) On day 21, the transport experiment was initiated by removal of the culture medium from AP and BL sides. The Caco-2 monolayers were rinsed twice with pre-warmed Hanks balanced salt solution (HBSS) and were incubated with the same solution at 37°C for 30 min. The seven individual test compounds and an equimolar mixture of them were pre-dissolved in DMSO, and then diluted to 25, 50, and 100 μmol/L with an appropriate volume of HBSS to allow the final concentration of DMSO to be less than 1%. The test compounds were added to the AP (0.5 mL) or BL side (1.5 mL), while the receiving chamber contained the corresponding volume of HBSS. Incubation was performed at 37°C for 180 min, with shaking at 50 rpm. At 30, 60, 90, 120, 150, and 180 min, each 0.2 mL of the solution from BL or AP side was collected, and replaced with an equal volume of HBSS. The samples were frozen immediately and stored below-20°C before analysis.
(§3) The apparent permeability coefficients (Papp) were determined in this study by HPLC quantification of the compounds in the receiver chamber after transport across the Caco-2 monolayer. The calculation was carried out in accordance with the formula Papp = (dQ/dt)×(1/A)×(1/C0), wherein dQ/dt was the rate of appearance of the test compound in the receiver compartment (μmol/s); C0 was the initial concentration of test compound in the donor compartment (μmol/mL); and A was the surface area of the Caco-2 monolayer (cm^2). The percentage transported (%) was calculated using the formula % transported = QB/(CS×VD)×100, wherein QB was the quantity of compound in the receiver compartment (μmol); CS was the concentration of test compound in the donor compartment (μmol/mL); VD was the liquid volume of the donor compartment (mL). The transport rate (μmol/h/cm^2) was calculated using the formula transport rate = QB/(t×A), wherein QB was the quantity of compound in the receiver compartment (μmol); t was the incubation time (h); A was the surface area of the Caco-2 monolayer (cm^2).

Caco-2 cell monolayer = assay: as above; type: in vitro ADME, human; conditions: for Absorption mechanism: from P ratio, time course and concentration course; for P ratio Papp AP→BL/Papp BL→AP: 50 μmol/L, 90 min
Description: as §1, §2, §3

[2] = Stability of sample solutions at room temperature by HPLC; type: physicochemical; conditions: sample solution at room temperature, HPLC at 0, 1, 2, 4, 6, 12 and 24 h
Description: The intra-day precision was determined by investigating the analytes in sextuplicates during a single day, and the inter-day precision was determined by conducting the intra-day experiment on two consecutive days. […] Each one sample solution of the seven flavonoids was kept at room temperature, and then their stabilities were determined by injecting them into apparatus at 0, 1, 2, 4, 6, 12, and 24 h.

P-glycoprotein (P-gp) = molecular target: T1, P-glycoprotein (P-gp) (Homo sapiens, UniProt P08183); assay: Transporter inhibition experiment with verapamil hydrochloride (P-gp) in Caco-2 monolayer; type: in vitro ADME; conditions: 50 μmol/L compound, 100 μmol/L verapamil hydrochloride, AP to BL; for Effect of verapamil hydrochloride on the transport: 180 min
T1 construct: endogenous in cells; host or cells: Caco-2 cells
Description: On day 21, transport study was initiated by carefully removing the culture medium from both AP and BL sides. The Caco-2 monolayers were rinsed twice with pre-warmed HBSS and were incubated with the same solution at 37°C for 30 min. […] The final concentration of DMSO in these solutions was less than 1%. […] Incubation was performed at 37°C for 180 min, with shaking at 50 rpm. […] The samples were frozen immediately and stored below-20°C before analysis.

[3] = system: parainfluenza virus type 3 (Para 3); parameters: method as in PMID 11849843; conditions: cited from earlier work
Staphylococcus aureus = system: Staphylococcus aureus; parameters: method as in earlier work; conditions: cited from earlier work
S. epidermidis = system: S. epidermidis; parameters: method as in earlier work; conditions: cited from earlier work
murine ear edema model = conditions: cited from earlier work
[4] = Caco-2, in the equimolar mixture of the seven flavonoids
[5] = in the equimolar mixture of the seven flavonoids

T1 sequence (P08183 whole entry): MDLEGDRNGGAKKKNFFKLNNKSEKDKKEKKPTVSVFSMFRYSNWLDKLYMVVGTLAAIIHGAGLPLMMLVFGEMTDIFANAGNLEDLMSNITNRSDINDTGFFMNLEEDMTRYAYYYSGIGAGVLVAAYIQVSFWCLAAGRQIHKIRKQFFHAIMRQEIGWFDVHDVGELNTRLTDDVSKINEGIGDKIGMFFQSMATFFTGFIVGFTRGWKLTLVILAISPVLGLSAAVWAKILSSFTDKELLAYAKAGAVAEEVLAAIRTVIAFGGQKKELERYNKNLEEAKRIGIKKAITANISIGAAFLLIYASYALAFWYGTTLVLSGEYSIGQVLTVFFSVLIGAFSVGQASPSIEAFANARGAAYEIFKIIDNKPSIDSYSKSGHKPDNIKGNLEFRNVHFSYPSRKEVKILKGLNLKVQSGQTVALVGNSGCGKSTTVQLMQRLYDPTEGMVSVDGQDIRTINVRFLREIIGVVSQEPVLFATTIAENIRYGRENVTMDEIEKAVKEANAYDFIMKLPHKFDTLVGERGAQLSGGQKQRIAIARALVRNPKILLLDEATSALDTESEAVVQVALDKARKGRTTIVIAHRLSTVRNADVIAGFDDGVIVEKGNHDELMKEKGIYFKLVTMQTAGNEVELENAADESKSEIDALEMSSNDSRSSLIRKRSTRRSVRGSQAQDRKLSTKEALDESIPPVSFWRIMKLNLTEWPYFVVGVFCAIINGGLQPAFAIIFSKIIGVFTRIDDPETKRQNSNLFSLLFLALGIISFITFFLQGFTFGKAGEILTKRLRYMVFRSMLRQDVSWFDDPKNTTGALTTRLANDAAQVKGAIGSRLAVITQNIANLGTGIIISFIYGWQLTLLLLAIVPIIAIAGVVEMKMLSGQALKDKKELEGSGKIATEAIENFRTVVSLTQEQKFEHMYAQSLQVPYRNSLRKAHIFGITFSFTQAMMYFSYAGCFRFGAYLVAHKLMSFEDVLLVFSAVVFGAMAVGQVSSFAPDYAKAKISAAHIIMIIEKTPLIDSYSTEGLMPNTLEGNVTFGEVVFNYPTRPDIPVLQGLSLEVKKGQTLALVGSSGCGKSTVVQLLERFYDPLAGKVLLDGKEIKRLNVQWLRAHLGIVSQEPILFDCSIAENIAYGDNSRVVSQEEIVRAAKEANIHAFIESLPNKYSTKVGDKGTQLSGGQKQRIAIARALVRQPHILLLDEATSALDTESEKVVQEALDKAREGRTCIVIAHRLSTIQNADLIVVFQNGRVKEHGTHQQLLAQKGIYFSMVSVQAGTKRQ

| SMILES | Papp A→B at 90 min, 50 μmol/L [1, 4] [×10⁻⁶ cm/s] | Papp B→A at 90 min, 50 μmol/L [1, 4] [×10⁻⁶ cm/s] | Papp A→B at 90 min, 50 μmol/L ([1]; Caco-2, individual compound) [×10⁻⁶ cm/s] | Papp B→A at 90 min, 50 μmol/L ([1]; Caco-2, individual compound) [×10⁻⁶ cm/s] | RSD% values for 24-hour stability [2] [%] | Survival rates (%) (Caco-2 cells; 25 μmol/L) | Survival rates (%) (Caco-2 cells; 50 μmol/L) | Survival rates (%) (Caco-2 cells; 100 μmol/L) | Absorption mechanism (Caco-2 cell monolayer) | P ratio Papp AP→BL/Papp BL→AP (Caco-2 cell monolayer; [5]) | P ratio Papp AP→BL/Papp BL→AP (Caco-2 cell monolayer; individual compound) | further results |
| --- | --- | --- | --- | --- | --- | --- | --- | --- | --- | --- | --- | --- |
| CC(=O)O[C@H]1C(=O)[C@@]2(C)[C@H]([C@H](OC(=O)c3ccccc3)[C@]3(O)C[C@H](OC(=O)[C@H](O)[C@@H](NC(=O)c4ccccc4)c4ccccc4)C(C)=C1C3(C)C)[C@]1(OC(C)=O)CO[C@@H]1C[C@@H]2O [Paclitaxel, reference compound] |  |  |  |  |  | 67.3±8.2 | 45.5±6.7 | 37.4±3.5 |  |  |  | Survival rates (%) (Caco-2 cells; 25 μmol/L, listed as paclitaxel): 67.3%; Survival rates (%) (Caco-2 cells; 50 μmol/L, listed as paclitaxel): 45.5%; Survival rates (%) (Caco-2 cells; 100 μmol/L, listed as paclitaxel): 37.4% |
| O=c1cc(-c2ccc(O)c(O)c2)oc2c([C@@H]3O[C@H](CO)[C@@H](O)[C@H](O)[C@H]3O)c(O)cc(O)c12 [Orientin, 2-(3,4-dihydroxyphenyl)-5,7-dihydroxy-8-((2S,3R,4R,5S,6R)-3,4,5-trihydroxy-6-(hydroxymethyl)tetrahydro-2H-pyran-2-yl)-4H-chromen-4-one] | 1.14 ± 0.27 | 0.88 ± 0.31 | 0.75 ± 0.05 | 1.14 ± 0.08 | 2.35 | 100.4±1.3 | 114.3±7.5 | 111.5±2.4 | transporter mediated efflux in addition to passive diffusion | 1.29 | 0.66 | Substrate of P-gp (P-glycoprotein (P-gp)): substrates of P-gp; Effect of verapamil hydrochloride on the transport (P-glycoprotein (P-gp)): increased; IC50 against parainfluenza virus type 3 [3]: 11.7 µg/mL (≈ 26.1 µM); MIC toward S. aureus (Staphylococcus aureus): 25 µg/mL (≈ 55.8 µM); MIC toward S. epidermidis (S. epidermidis): 25 µg/mL (≈ 55.8 µM); Anti-inflammatory effect against murine ear edema (murine ear edema model): possess anti-inflammatory effects |
| CC(C)NCC(O)COc1cccc2ccccc12 (centres unmarked) [propranolol, reference compound] |  |  |  |  |  |  |  |  |  |  |  | Papp ([1]; Caco-2, standard compounds, validation of the monolayer model): 14.4 ×10⁻⁶ cm/s |
| COc1cc(O)c2c(=O)cc(-c3ccc(O)c(O)c3)oc2c1[C@@H]1O[C@H](CO)[C@@H](O)[C@H](O)[C@H]1O [Isoswertiajaponin, 2-(3,4-dihydroxyphenyl)-5-hydroxy-7-methoxy-8-((2S,3R,4R,5S,6R)-3,4,5-trihydroxy-6-(hydroxymethyl)tetrahydro-2H-pyran-2-yl)-4H-chromen-4-one] | 1.44 ± 0.47 | 0.54 ± 0.31 | 0.98 ± 0.03 | 1.19 ± 0.07 | 2.95 | 116.7±8.9 | 124.6±5.4 | 109.1±12.6 | passive diffusion without participation of transporter | 2.66 | 0.83 | P ratio Papp AP→BL/Papp BL→AP (Caco-2 cell monolayer; individual compound, listed as isoswertiajaponin): ~1 |
| O=c1cc(-c2ccc(O)cc2)oc2c([C@@H]3O[C@H](CO)[C@@H](O)[C@H](O)[C@H]3O)c(O)cc(O)c12 [Vitexin, 5,7-dihydroxy-2-(4-hydroxyphenyl)-8-((2S,3R,4R,5S,6R)-3,4,5-trihydroxy-6-(hydroxymethyl)tetrahydro-2H-pyran-2-yl)-4H-chromen-4-one] | 1.6 ± 0.18 | 1.03 ± 0.28 | 2.26 ± 0.37 | 3.38 ± 0.54 | 2.42 | 104.5±10.5 | 101.3±2.3 | 98.2±8.9 | transporter mediated efflux in addition to passive diffusion | 1.55 | 0.67 | Substrate of P-gp (P-glycoprotein (P-gp)): substrates of P-gp; Effect of verapamil hydrochloride on the transport (P-glycoprotein (P-gp)): increased; IC50 against parainfluenza virus type 3 [3]: 20.8 µg/mL (≈ 48.1 µM); MIC toward S. aureus (Staphylococcus aureus): 100 µg/mL (≈ 231 µM); MIC toward S. epidermidis (S. epidermidis): 25 µg/mL (≈ 57.8 µM); Anti-inflammatory effect against murine ear edema (murine ear edema model): possess anti-inflammatory effects |

More lines, main results first:

| Papp A→B at 90 min, 50 μmol/L [1, 4] [×10⁻⁶ cm/s] | Papp B→A at 90 min, 50 μmol/L [1, 4] [×10⁻⁶ cm/s] | Papp A→B at 90 min, 50 μmol/L ([1]; Caco-2, individual compound) [×10⁻⁶ cm/s] | Papp B→A at 90 min, 50 μmol/L ([1]; Caco-2, individual compound) [×10⁻⁶ cm/s] | RSD% values for 24-hour stability [2] [%] | SMILES | Survival rates (%) (Caco-2 cells; 25 μmol/L) | Survival rates (%) (Caco-2 cells; 50 μmol/L) | Survival rates (%) (Caco-2 cells; 100 μmol/L) | Absorption mechanism (Caco-2 cell monolayer) | P ratio Papp AP→BL/Papp BL→AP (Caco-2 cell monolayer; [5]) | P ratio Papp AP→BL/Papp BL→AP (Caco-2 cell monolayer; individual compound) | further results |
| --- | --- | --- | --- | --- | --- | --- | --- | --- | --- | --- | --- | --- |
| 2.69 ± 0.37 | 1.59 ± 0.2 | 1.07 ± 0.08 | 0.94 ± 0.18 | 2.82 | COc1cc(O)c2c(=O)cc(-c3ccc(O)cc3)oc2c1[C@@H]1O[C@H](CO)[C@@H](O)[C@H](O)[C@H]1O [Isoswertisin, 5-hydroxy-2-(4-hydroxyphenyl)-7-methoxy-8-((2S,3R,4R,5S,6R)-3,4,5-trihydroxy-6-(hydroxymethyl)tetrahydro-2H-pyran-2-yl)-4H-chromen-4-one] | 110.8±9.9 | 115.3±5.5 | 116.0±8.6 | passive diffusion without participation of transporter | 1.69 | 1.14 | P ratio Papp AP→BL/Papp BL→AP (Caco-2 cell monolayer; individual compound, listed as isoswertisin): ~1 |
| 1.92 ± 0.42 | 0.81 ± 0.27 | 1.85 ± 0.02 | 4.68 ± 0.02 | 2.65 | O=c1cc(-c2ccc(O)cc2)oc2c([C@@H]3O[C@H](CO)[C@@H](O)[C@H](O)[C@H]3O[C@@H]3O[C@H](CO)[C@H](O)[C@H](O)[C@H]3O)c(O)cc(O)c12 [2”-O-β-L-galactopyranosylvitexin, 8-((2S,3R,4S,5S,6R)-4,5-dihydroxy-6-(hydroxymethyl)-3-(((2S,3R,4S,5R,6R)-3,4,5-trihydroxy-6-(hydroxymethyl)tetrahydro-2H-pyran-2-yl)oxy)tetrahydro-2H-pyran-2-yl)-5,7-dihydroxy-2-(4-hydroxyphenyl)-4H-chromen-4-one] |  |  |  | transporter mediated efflux in addition to passive diffusion |  |  |  |
